Data: ChEMBL document CHEMBL5154694, “Fascaplysin derivatives binding to DNA via unique cationic five-ring coplanar backbone showed potent antimicrobial/antibiofilm activity against MRSA in vitro and in vivo” (Eur J Med Chem, 2022)
Active and inactive are the calls of the source. The rule behind the calls is not given here.

Tests used:
Staphylococcus aureus [1] = assay: Antibacterial activity against methicillin-resistant Staphylococcus aureus ATCC 4330 after 16 to 18 hrs by microbroth dilution method; assay type: functional; settings: time 16-18 hrs
Staphylococcus aureus [2] = assay: Induction of membrane morphological changes in methicillin-resistant Staphylococcus aureus ATCC 4330 assessed as visible cell membrane disruption at 4X MIC after 2 hrs by transmission electron microscopy; assay type: functional
Staphylococcus aureus [3] = assay: Induction of membrane morphological changes in methicillin-resistant Staphylococcus aureus ATCC 4330 assessed as ghost cells at 4X MIC after 2 hrs by transmission electron microscopy; assay type: functional
Staphylococcus aureus [4] = assay: Induction of membrane morphological changes in methicillin-resistant Staphylococcus aureus ATCC 4330 assessed as visible cell wall fragments at 4X MIC after 2 hrs by transmission electron microscopy; assay type: functional
Staphylococcus aureus [5] = assay: Antimicrobial activity against methicillin-resistant Staphylococcus aureus ATCC 4330 infected in female ICR peritonitis mouse model assessed as survival time of mouse at 10 mg/kg, ip; assay type: functional
Staphylococcus aureus [6] = assay: Bactericidal activity against methicillin-resistant Staphylococcus aureus ATCC 4330 assessed as reduction in bacterial counts at 1 to 4X MIC within 24 hrs by time-kill kinetic assay; assay type: functional
Staphylococcus aureus [7] = assay: Antibiofilm activity against methicillin-resistant Staphylococcus aureus ATCC 4330 assessed as inhibition of biofilm formation at 1.56 ug/ml after 24 hrs by crystal violet staining based assay relative to control; assay type: functional
Staphylococcus aureus [8] = assay: Antimicrobial activity against methicillin-resistant Staphylococcus aureus ATCC 4330 infected in female ICR peritonitis mouse model assessed as increase in survival rate of mouse at 10 mg/kg, ip; assay type: functional
[9] = Cytotoxicity against mouse RAW264.7 cells assessed as cell survival at 25 ug/ml incubated for 24 hrs by CCK-8 assay; assay type: toxicity, cell-based; settings: at 25 µg/mL, read-out: Activity
[10] = Toxicity in female ICR peritonitis mouse model infected with methicillin-resistant Staphylococcus aureus ATCC 4330 assessed as lung damage at 10 mg/kg, ip; assay type: organism-based; settings: in vivo
Staphylococcus aureus [11] = assay: Antimicrobial activity against methicillin-resistant Staphylococcus aureus ATCC 4330 infected in female ICR peritonitis mouse model assessed as reduction in bacteria in blood at 10 mg/kg, ip; assay type: functional
Staphylococcus aureus [12] = assay: Bactericidal activity against methicillin-resistant Staphylococcus aureus ATCC 4330 assessed as reduction in bacterial counts at 4X MIC by time-kill kinetic assay; assay type: functional, organism-based
DNA [13] = assay: Binding affinity to methicillin-resistant Staphylococcus aureus ATCC 4330 DNA assessed as induction of confirmational changes at 50 ug/ml measured by Circular dichroism assay; assay type: nucleic-acid assay; settings: dose 50.0 µg/ml
Staphylococcus aureus [14] = assay: Bactericidal activity against methicillin-resistant Staphylococcus aureus ATCC 4330 assessed as reduction in bacterial counts at 2X MIC within 0.5 hrs by time-kill kinetic assay; assay type: functional
Staphylococcus aureus [15] = assay: Induction of membrane morphological changes in methicillin-resistant Staphylococcus aureus ATCC 4330 assessed as visible cell filaments at 4X MIC after 2 hrs by scanning electron microscopy; assay type: functional
[16] = Cytotoxicity against mouse RAW264.7 cells assessed as cell survival at 50 ug/ml incubated for 24 hrs by CCK-8 assay; assay type: toxicity, cell-based; settings: at 50 µg/mL, read-out: Activity
[17] = Hemolytic activity in mouse erythrocytes assessed as hemolysis at 12.5 ug/ml relative to control; assay type: toxicity, cell-based, Erythrocyte; settings: at 12.5 µg/mL, read-out: Activity
[18] = Cytotoxicity against mouse RAW264.7 cells assessed as cell survival at 12.5 ug/ml incubated for 24 hrs by CCK-8 assay; assay type: toxicity, cell-based; settings: at 12.5 µg/mL, read-out: Activity
Staphylococcus aureus [19] = assay: Induction of membrane morphological changes in methicillin-resistant Staphylococcus aureus ATCC 4330 assessed as visible cell surface wrinkles at 4X MIC after 2 hrs by scanning electron microscopy; assay type: functional
Staphylococcus aureus [20] = assay: Induction of membrane morphological changes in methicillin-resistant Staphylococcus aureus ATCC 4330 assessed as fluorescent intensity at 1 to 4X MIC measured after 30 to 120 mins by propidium iodide staining based flow cytometry assay; assay type: functional; settings: time 30-120 min
[21] = Toxicity in female ICR peritonitis mouse model infected with methicillin-resistant Staphylococcus aureus ATCC 4330 assessed as kidney damage at 10 mg/kg, ip; assay type: organism-based; settings: in vivo
[22] = Toxicity in female ICR peritonitis mouse model infected with methicillin-resistant Staphylococcus aureus ATCC 4330 assessed as liver damage at 10 mg/kg, ip; assay type: organism-based; settings: in vivo
Staphylococcus aureus [23] = assay: Antibiofilm activity against methicillin-resistant Staphylococcus aureus ATCC 4330 assessed as fold change in upregulation of AgrA mRNA expression at 4X MIC after 2 hrs by qRT-PCR assay; assay type: functional
Staphylococcus aureus [24] = assay: Bactericidal activity against methicillin-resistant Staphylococcus aureus ATCC 4330 assessed as inhibition of bacterial regrowth at 2X MIC after 24 hrs by time-kill kinetic assay; assay type: functional, organism-based
DNA [25] = assay: Inhibition of methicillin-resistant Staphylococcus aureus ATCC 4330 genomic DNA migration at 3.125 to 6.25 ug/ml measured by electrophoretic mobility assay; assay type: nucleic-acid assay; settings: dose 3.125-6.25 µg/ml
Staphylococcus aureus [26] = assay: Induction of membrane morphological changes in methicillin-resistant Staphylococcus aureus ATCC 4330 assessed as permeable cells at 1 to 4X MIC measured after 30 to 120 mins by propidium iodide staining based flow cytometry assay; assay type: functional; settings: time 30-120 min
Staphylococcus aureus [27] = assay: Antibiofilm activity against methicillin-resistant Staphylococcus aureus ATCC 4330 assessed as fold change in downregulation of AgrA mRNA expression at 4X MIC after 2 hrs by qRT-PCR assay; assay type: functional
Staphylococcus aureus [28] = assay: Antibiofilm activity against methicillin-resistant Staphylococcus aureus ATCC 4330 assessed as inhibition of biofilm formation at 6.25 ug/ml after 24 hrs by crystal violet staining based assay relative to control; assay type: functional
[29] = Cmax in rat plasma at 15 mg/kg, IG; assay type: ADME, organism-based; set-up: dose 15 mg/kg, route ig; settings: po
[30] = Cmax in rat plasma at 3 mg/kg, iv; assay type: ADME, organism-based; set-up: dose 3 mg/kg, route iv
[31] = Stability in plasma (unknown origin); assay type: ADME, cell-free; settings: unidentified
Staphylococcus aureus [32] = assay: Antibiofilm activity against methicillin-resistant Staphylococcus aureus ATCC 4330 assessed as inhibition of biofilm formation at 50 ug/ml after 24 hrs by crystal violet staining based assay relative to control; assay type: functional

SMILES | MIC (Staphylococcus aureus [1]) | Survival (Staphylococcus aureus [5]) | Activity (Staphylococcus aureus [6]) | Activity (Staphylococcus aureus [8]) | Activity [10] | Activity (Staphylococcus aureus [11]) | Activity (Staphylococcus aureus [12]) | Activity (Staphylococcus aureus [14]) | viability at 24 h, 50 ug/ml [16] | hemolysis at 12.5 ug/ml [17] | Activity [21] | Activity [22] | further results
Cc1ccc2[nH]c3c(C(=O)c4ccccc4Cl)nccc3c2c1 | > 200 µg/mL | – | – | – | – | – | – | – | – | – | – | – | –
O=C1c2ccccc2-[n+]2ccc3c([nH]c4ccc(Br)cc43)c21.[Br-] | 0.098 µg/mL | 2 days | 2 log10CFU/ml | 20% | Non-Toxic | Active | Active | 2.4 log10CFU/ml | 92.9% | 0% | Non-Toxic | Non-Toxic | Activity (Staphylococcus aureus [2]): Active; Activity (Staphylococcus aureus [3]): Active; Activity (Staphylococcus aureus [4]): Active; inhibition at 1.56 µg/mL (Staphylococcus aureus [7]): 74.9%; viability at 24 h, 25 ug/ml [9]: 86.5%; Activity (DNA [13]): Active; Activity (Staphylococcus aureus [15]): Active; viability at 24 h, 12.5 ug/ml [18]: 72.3%; Activity (Staphylococcus aureus [19]): Active; Activity (Staphylococcus aureus [20]): 19.3%; fold change (FC) (Staphylococcus aureus [23]): 2.12; Activity (Staphylococcus aureus [24]): Active; inhibition of DNA migration (DNA [25]): Active
O=C1c2ccccc2-[n+]2ccc3c([nH]c4ccccc43)c21 | – | – | – | – | – | Active | Active | – | – | – | – | – | Activity (Staphylococcus aureus [2]): Active; Activity (Staphylococcus aureus [3]): Active; Activity (Staphylococcus aureus [4]): Active; Activity (DNA [13]): Active; Activity (Staphylococcus aureus [15]): Active; Activity (Staphylococcus aureus [19]): Active; Activity (Staphylococcus aureus [26]): 1.11%; Activity (Staphylococcus aureus [24]): Active; inhibition of DNA migration (DNA [25]): Active
O=C(Nc1cccc2ccccc12)c1ccc2[nH]c3c(C(=O)c4ccccc4Br)nccc3c2c1 | > 200 µg/mL | – | – | – | – | – | – | – | – | – | – | – | –
NC(=O)c1ccc2[nH]c3c4[n+](ccc3c2c1)-c1ccccc1C4=O.[Br-] | 200 µg/mL | – | – | – | – | – | – | – | – | – | – | – | –
O=C(Nc1cccc2ccccc12)c1ccc2[nH]c3c4[n+](ccc3c2c1)-c1ccccc1C4=O.[Br-] | 0.098 µg/mL | 2 days | 2 log10CFU/ml | 20% | Non-Toxic | Active | Active | 1.9 log10CFU/ml | 98.4% | 0% | Non-Toxic | Non-Toxic | Activity (Staphylococcus aureus [2]): Active; Activity (Staphylococcus aureus [3]): Active; Activity (Staphylococcus aureus [4]): Active; inhibition at 1.56 µg/mL (Staphylococcus aureus [7]): 78.9%; Activity (DNA [13]): Active; Activity (Staphylococcus aureus [15]): Active; Activity (Staphylococcus aureus [19]): Active; Activity (Staphylococcus aureus [20]): 19.3%; Activity (Staphylococcus aureus [24]): Active; inhibition of DNA migration (DNA [25]): Active; fold change (FC) (Staphylococcus aureus [27]): 0.1
Cc1ccc2[nH]c3c4[n+](ccc3c2c1)-c1ccccc1C4=O.[Br-] | 0.195 µg/mL | 2 days | 2 log10CFU/ml | 20% | Non-Toxic | 92% | – | 1.7 log10CFU/ml | 69.8% | 0% | Non-Toxic | Non-Toxic | viability at 24 h, 25 ug/ml [9]: 56.3%; viability at 24 h, 12.5 ug/ml [18]: 17.7%; inhibition at 6.25 µg/mL (Staphylococcus aureus [28]): 65.4%; fold change (FC) (Staphylococcus aureus [27]): 0.71
O=C1c2ccccc2-[n+]2ccc3c([nH]c4ccccc43)c21.[Cl-] [FASCAPLYSIN CHLORIDE] | 0.78 µg/mL | – | 2 log10CFU/ml | – | – | – | – | 0 log10CFU/ml | – | – | – | – | Cmax [29]: 65.2 ng/mL; Cmax [30]: 414 ng/mL; Stability [31]: 94.9%
O=C(O)c1ccc2[nH]c3c(C(=O)c4ccccc4Br)nccc3c2c1 | > 200 µg/mL | – | – | – | – | – | – | – | – | – | – | – | –
O=C1c2ccccc2-[n+]2ccc3c([nH]c4ccccc43)c21.[Br-] | 0.39 µg/mL | 2 days | 2 log10CFU/ml | 20% | Non-Toxic | – | – | 0 log10CFU/ml | 100% | 0% | Non-Toxic | Non-Toxic | viability at 24 h, 25 ug/ml [9]: 100%; inhibition at 50 µg/mL (Staphylococcus aureus [32]): 27.4%; viability at 24 h, 12.5 ug/ml [18]: 91.7%; fold change (FC) (Staphylococcus aureus [23]): 1.67
CN[C@H](CC(C)C)C(=O)N[C@H]1C(=O)N[C@@H](CC(N)=O)C(=O)N[C@H]2C(=O)N[C@H]3C(=O)N[C@H](C(=O)N[C@H](C(=O)O)c4cc(O)cc(O)c4-c4cc3ccc4O)[C@H](O)c3ccc(c(Cl)c3)Oc3cc2cc(c3O[C@@H]2O[C@H](CO)[C@@H](O)[C@H](O)[C@H]2O[C@H]2C[C@](C)(N)[C@H](O)[C@H](C)O2)Oc2ccc(cc2Cl)[C@H]1O [VANCOMYCIN] | – | – | 2 log10CFU/ml | – | – | – | Active | 0.1 log10CFU/ml | – | – | – | – | –
